According to article PMC3655598, “Application of IgG-Derived Natural Treg Epitopes (IgG Tregitopes) to Antigen-Specific Tolerance Induction in a Murine Model of Type 1 Diabetes” (Journal of Diabetes Research, 2013):
Where two headings read alike, the source gives them in different places. Marks after values point to notes of the source that are not given here. No end group written: not given here.

Columns and labels:
DRB1*0701 [1] = biological target: T1, DRB1*0701 (Homo sapiens, UniProt P01903+P01911, A100R/A102G/A103Q/D57E/D86V/E43K/F76Y/K127E/L162R/M171V/P40G/Q125H/Q99D/R33Q/R42Y/R54Q/S133A/S66F/T210M/V115G/Y107V/Y59L/Y89S); assay: biochemical
DRB1*0101 = DRB1*0101 (Homo sapiens, UniProt P01903+P01911, A100R/D57E/F55L/F60I/F76Y/I96L/L162R/M171V/P40L/Q125E/R42F/V115G/Y59C); assay: biochemical
DRB1*1501 = biological target: T2, DRB1*1501 (Homo sapiens, UniProt P01903+P01911); assay: competition-based HLA binding assay
T2 construct: gift: William Kwok, Benaroya Institute, Seattle

DRB1*0401 = DRB1*0401 (Homo sapiens, UniProt P01903+P01911, A100K/A169T/F76Y/I96L/K127E/L162R/M171V/N62H/P40V/Q125Y/R42H/S133A/S149N/S66Y/V115G/V209L/W38E); conditions: read-out: DRB1*0401 IC50; competition with biotin-Flu-HA 306–318 at 0.1 μM, 24 h, 37°C; NB = non-binder
PBMC = assay: two-step IFNγ ELISpot assay with human PBMC; assay type: cell-based; conditions: 7 d pre-culture with GAD65 peptide pool, 48 h restimulation, triplicate;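 also: background is unstimulated wells, counts given per 1 million cells, 200,000–250,000 cells per well, restimulated at 37°C, read by Zeiss plate reader, IL-2 and IL-7 fed during pre-culture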
DRB1*0701 [2] = biological target: T1, DRB1*0701; conditions: read-out: DRB1*0701 IC50; competition with biotin-Flu-HA 306–318 at 1 μM, 24 h, 37°C; NB = non-binder
[3] = Negative Control 668 PBMC, Tregitope + (5 μg/mL each human Tregitopes 167 and 289)
[4] = Negative Control 668 PBMC, Tregitope −
[5] = Negative Control 669 PBMC, Tregitope + (5 μg/mL each human Tregitopes 167 and 289)
[6] = Negative Control 669 PBMC, Tregitope −
[7] = Negative Control 670 PBMC, Tregitope + (5 μg/mL each human Tregitopes 167 and 289)
[8] = Negative Control 670 PBMC, Tregitope −
[9] = Negative Control 674 PBMC, Tregitope + (5 μg/mL each human Tregitopes 167 and 289)
[10] = Negative Control 674 PBMC, Tregitope −
[11] = Subject D1100H (T1D) PBMC, Tregitope + (5 μg/mL each human Tregitopes 167 and 289)
[12] = Subject D1100H (T1D) PBMC, Tregitope −
[13] = Subject D1101H (T1D) PBMC, Tregitope + (5 μg/mL each human Tregitopes 167 and 289)
[14] = Subject D1101H (T1D) PBMC, Tregitope −
[15] = Subject D1104H (T1D) PBMC, Tregitope + (5 μg/mL each human Tregitopes 167 and 289)
[16] = Subject D1104H (T1D) PBMC, Tregitope −
[17] = Subject D1105H (T1D) PBMC, Tregitope + (5 μg/mL each human Tregitopes 167 and 289)
[18] = Subject D1105H (T1D) PBMC, Tregitope −
[19] = Subject D1106H (T1D) PBMC, Tregitope + (5 μg/mL each human Tregitopes 167 and 289)
[20] = Subject D1106H (T1D) PBMC, Tregitope −
[21] = Subject D1107H (T1D) PBMC, Tregitope + (5 μg/mL each human Tregitopes 167 and 289)
[22] = Subject D1107H (T1D) PBMC, Tregitope −

Row | Substance | IC50 (DRB1*0701 [1]) [µM] | IC50 (DRB1*0101) [µM] | IC50 (DRB1*1501) [µM] | IC50 (DRB1*0401) [µM] | IFNγ ELISpot SFC over background (PBMC; [3]) [SFC over BG/10^6] | IFNγ ELISpot SFC over background (PBMC; [4]) [SFC over BG/10^6] | IFNγ ELISpot SFC over background (PBMC; [5]) | IFNγ ELISpot SFC over background (PBMC; [6]) [SFC over BG/10^6] | IFNγ ELISpot SFC over background (PBMC; [7]) | IFNγ ELISpot SFC over background (PBMC; [8]) [SFC over BG/10^6] | IFNγ ELISpot SFC over background (PBMC; [9]) [SFC over BG/10^6] | IFNγ ELISpot SFC over background (PBMC; [10]) [SFC over BG/10^6] | IFNγ ELISpot SFC over background (PBMC; [11]) [SFC over BG/10^6] | IFNγ ELISpot SFC over background (PBMC; [12]) [SFC over BG/10^6] | IFNγ ELISpot SFC over background (PBMC; [13]) [SFC over BG/10^6] | IFNγ ELISpot SFC over background (PBMC; [14]) [SFC over BG/10^6] | IFNγ ELISpot SFC over background (PBMC; [15]) [SFC over BG/10^6] | IFNγ ELISpot SFC over background (PBMC; [16]) [SFC over BG/10^6] | IFNγ ELISpot SFC over background (PBMC; [19]) [SFC over BG/10^6] | IFNγ ELISpot SFC over background (PBMC; [20]) [SFC over BG/10^6] | further results
1 | GAISNMYAMMIARFKMFPEVKEKGM [GAD65_243–267] | 8.7 | < 5 | < 5 |  |  |  |  |  |  |  |  |  |  |  |  |  |  |  |  |  | 
2 | LGDKVNFFRMVISNPAATHQD [GAD65_550–570] |  |  |  | < 25 | 440 | 312 | 30** SFC over BG/10^6 | 144 | −90 SFC over BG/10^6 | 25 | 431 | 490 | 141 | 199 | 100 | 126 | 101 | 146 | 113 | 88 | IFNγ ELISpot SFC over background (PBMC; [17]): 228* SFC over BG/10^6; IFNγ ELISpot SFC over background (PBMC; [18]): 352 SFC over BG/10^6; IFNγ ELISpot SFC over background (PBMC; [21]): 1** SFC over BG/10^6; IFNγ ELISpot SFC over background (PBMC; [22]): 160 SFC over BG/10^6
3 | NMFTYEIAPVFVLLEYVTLKKMRE [GAD65_203–226] |  |  |  | < 25 | 460 | 475 | 52 SFC over BG/10^6 | 109 | 82** SFC over BG/10^6 | 329 | 109 | 168 |  |  | 51 | 157 | 154 | 221 | 138 | 207 | IFNγ ELISpot SFC over background (PBMC; [17]): 138* SFC over BG/10^6; IFNγ ELISpot SFC over background (PBMC; [18]): 245 SFC over BG/10^6
4 | GAD65 protein: whole GAD65 protein (Kronus, UK) |  |  |  |  |  |  |  |  |  |  | 818 | 44 | 77 | 413 | 59 | 37 | 69 | 32 | 591 | 670 | IFNγ ELISpot SFC over background (PBMC; [21]): 46 SFC over BG/10^6; IFNγ ELISpot SFC over background (PBMC; [22]): 95 SFC over BG/10^6
5 | VDVFKLWLMWRAKGTTGFEAH [GAD65_450–470] | 10.2 | 25.4 | 11.4 | > 50 |  |  |  |  |  |  |  |  |  |  |  |  |  |  |  |  | 
6 | TTVYGAFDPLLAVAD [GAD65_338–352] |  | 4.1 |  | > 50 |  |  |  |  |  |  |  |  |  |  |  |  |  |  |  |  | IC50 (DRB1*0701 [2]): > 50 µM; IC50 (DRB1*1501; competition with biotin-MBP 84–102 at 0.5 μM, 24 h, 37°C, NB = non-binder, read-out: DRB1*1501 IC50): 31.3 µM
